Laboratory results as given in patent EP0222702A2, “Basic carbonyl derivatives” (CIBA-GEIGY AG, priority 1985, dated 1987).

Key:
[1] = biological target: T1, Serotonin-(5HT2)-Rezeptoren (Rattus norvegicus, UniProt P14842); experiment: Displacement of 3H-ketanserin binding from rat brain membranes; set-up: species or system Ratten; settings: read-out: Verdrängung der Bindung von 3H-Ketanserin, Konzentration (ICso)
T1 construct: from tissue; host or cells: rat brain membranes
Description: (§1) Ferner lässt sich die Bindung der neuen Verbindungen oder deren Salze an Dihydropyridin-Rezeptoren mittels Verdrängung der Bindung von ^3H-Nitrendipin an Membranen von Meerschweichenherzen in in-vitro-Versuchen [Erne, P. et al,: Biochem. Biophys. Res. Commm., 118, 842-847 (1984)] z.B. unter Verwendung von 2,6-Dimethyl-4-(3-nitrophenyl)-1,4-dihydropyridin-3-carbonsäuremethylester-5-carbonsäure-[2-[4-(p-fluorobenzoyl)-piperidin-1-yl]-1-phenyl] -äthyl ester (Diastereomerengemisch) bei einer Konzentration (IC50) von etwa 0,2 nMol/Liter nachweisen. Ebenso kann die Bindung der erfindungsgemässen Verbindungen an ai-Rezeptoren durch Verdrängung von ^3H-Prazosin aus seinen Bindungsstellen an der Ratten-Cerebralcortex-Membran gemäss der Methodik von P. Greenengass et al., Eur. J. Pharmacol. 55, 323, (1979), bei etwa 300 nMol/Liter in vitro signifikant nachgewiesen werden. Ausserdem lässt sich die Bindung der neuen Verbindungen oder deren Salze an Serotonin-(5HT2)-Rezeptoren mittels Verdrängung der Bindung von ^3H-Ketanserin an Membranen des Rattenhirns [Leysen, J.E. et al.: Molecul. Pharmacol. 21, 301-304, (1982)] z.B. unter Verwendung von 2,6-Dimethyl-4-(3-nitrophenyl)-1,4-dihydropyridin-3-carbonsäuremethylester-5-carbonsäure-[2-[4-(p-fluorbenzoyl)-piperidin-1-yl]-1-phenyl]-äthylester (Diastereomerengemisch) bei einer Konzentration (ICso) von etwa 6,0 nMol/Liter zeigen.

[2] = tested on: renal hypertensiven Ratte; experiment: Blood pressure lowering in the renal hypertensive rat; assay type: in vivo; settings: 2 hours after p.o. application of ca. 2,0 mg/kg
Description: Die neuen Verbindungen oder deren Salze bewirken ferner eine Hemmung der durch Angiotensin 11, durch elektrische Stimulation oder durch Phenylephrin oder Noradrenalin induzierten pressorischen Effekte an der "pithed rat" [J.S. Gillespie: Br.J.Pharmacoi. 30, 78 (1967)] bei einer Dosis von etwa 2 mg/kg, und eine Hemmung der durch Serotonin induzierten pressorischen Effekte bei einer Dosis von etwa 6 mg/kg. Die neuen Verbindungen oder deren Salze wirken ausserdem antihypertensiv, was sich z.B. durch Senkung des Blutdrucks an der renal hypertensiven Ratte [Goldblatt et al.: J.exp.med. 59, 347 (1934)] zeigen lässt. So kann z.B. 2 Stunden nach p.o-Applikation von ca. 2,0 mg/kg 2,6-Dimethyl-4-(3-nitrophenyl)-1,4-dihydropyridin-3-carbonsäuremethylester-5-carbonsäure-[2-[4-(p-fluorbenzoyl)-piperidin-1-yl]-1-phenyl]-äthylester (Diastereomerengemisch) an der renal hypertensiven Ratte eine Blutdrucksenkung von ca. -70 mm Hg beobachtet werden.

[3] = biological target: T2, Dihydropyridin-Rezeptoren (Cavia porcellus, UniProt O35505); experiment: Displacement of 3H-nitrendipine binding from guinea pig heart membranes; set-up: species or system Meerschweichen; settings: membranes of guinea pig hearts, in vitro; read-out: Verdrängung der Bindung von 3H-Nitrendipin, Konzentration (IC50)
T2 construct: from tissue; host or cells: guinea pig heart membranes
Description: as §1

[4] = tested on: Noradrenalin-induzierten Vasokonstriktion, isoliert perfundierten Mesenterialgefässen der Ratte; experiment: Inhibition of noradrenaline-induced vasoconstriction in isolated perfused rat mesenteric vessels; settings: in vitro, read-out: Hemmung der Noradrenalin-induzierten Vasokonstriktion (ICso)
Description: Die Verbindungen der Formel 1 und deren Salze besitzen wertvolle pharmakologische Eigenschaften, vor allem im cardiovasculären Bereich. Sie wirken als Calcium-Antagonisten und besitzen a-Rezeptoren blockierende sowie Serotonin-antagonistische Eigenschaften, wie sich z.B. in in-vitro-Versuchen an isoliert perfundierten Mesenterialgefässen der Ratte [McGregor, D.: J.Physiol. 177, 21-30, (1965)] als Hemmung der Kalium-,Noradrenalin-und Serotonin-induzierten Vasokonstriktion, beispielsweise unter Verwendung von 2,6-Dimethyl-4-(3-nitrophenyl)-1,4-dihydropyridin-3-carbonsäurmethylester-5-carbonsäure-[2-[4-(p-fluorben- zoyl)-piperidin-1-yl] -1-phenyl]-äthylester (Diastereomerengemisch) bei einer Konzentration von ca. 5 nMol/Liter (IC50) für die Hemmung der Kalium-induzierten Vasokonstriktion, von ca. 4 nMol/Liter (ICso) für die Hemmung der Noradrenalin-induzierten Vasokonstriktion und von ca. 80 nMol/Liter für die Hemmung der Serotonin-induzierten Vasokonstriktion zeigen lässt.

T1 sequence (P14842 whole entry): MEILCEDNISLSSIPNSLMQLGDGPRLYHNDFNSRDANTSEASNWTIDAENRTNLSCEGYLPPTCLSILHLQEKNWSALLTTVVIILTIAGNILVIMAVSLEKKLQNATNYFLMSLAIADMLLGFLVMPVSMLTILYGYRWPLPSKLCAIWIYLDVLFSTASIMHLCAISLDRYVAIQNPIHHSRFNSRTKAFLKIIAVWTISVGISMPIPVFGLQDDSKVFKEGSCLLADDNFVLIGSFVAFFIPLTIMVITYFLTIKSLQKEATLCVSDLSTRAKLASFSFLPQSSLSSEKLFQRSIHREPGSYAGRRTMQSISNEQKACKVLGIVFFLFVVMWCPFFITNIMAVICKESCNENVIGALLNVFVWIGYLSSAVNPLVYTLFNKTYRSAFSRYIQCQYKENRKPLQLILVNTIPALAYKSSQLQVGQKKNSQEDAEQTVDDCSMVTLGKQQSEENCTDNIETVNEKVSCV
T2 sequence (O35505 whole entry): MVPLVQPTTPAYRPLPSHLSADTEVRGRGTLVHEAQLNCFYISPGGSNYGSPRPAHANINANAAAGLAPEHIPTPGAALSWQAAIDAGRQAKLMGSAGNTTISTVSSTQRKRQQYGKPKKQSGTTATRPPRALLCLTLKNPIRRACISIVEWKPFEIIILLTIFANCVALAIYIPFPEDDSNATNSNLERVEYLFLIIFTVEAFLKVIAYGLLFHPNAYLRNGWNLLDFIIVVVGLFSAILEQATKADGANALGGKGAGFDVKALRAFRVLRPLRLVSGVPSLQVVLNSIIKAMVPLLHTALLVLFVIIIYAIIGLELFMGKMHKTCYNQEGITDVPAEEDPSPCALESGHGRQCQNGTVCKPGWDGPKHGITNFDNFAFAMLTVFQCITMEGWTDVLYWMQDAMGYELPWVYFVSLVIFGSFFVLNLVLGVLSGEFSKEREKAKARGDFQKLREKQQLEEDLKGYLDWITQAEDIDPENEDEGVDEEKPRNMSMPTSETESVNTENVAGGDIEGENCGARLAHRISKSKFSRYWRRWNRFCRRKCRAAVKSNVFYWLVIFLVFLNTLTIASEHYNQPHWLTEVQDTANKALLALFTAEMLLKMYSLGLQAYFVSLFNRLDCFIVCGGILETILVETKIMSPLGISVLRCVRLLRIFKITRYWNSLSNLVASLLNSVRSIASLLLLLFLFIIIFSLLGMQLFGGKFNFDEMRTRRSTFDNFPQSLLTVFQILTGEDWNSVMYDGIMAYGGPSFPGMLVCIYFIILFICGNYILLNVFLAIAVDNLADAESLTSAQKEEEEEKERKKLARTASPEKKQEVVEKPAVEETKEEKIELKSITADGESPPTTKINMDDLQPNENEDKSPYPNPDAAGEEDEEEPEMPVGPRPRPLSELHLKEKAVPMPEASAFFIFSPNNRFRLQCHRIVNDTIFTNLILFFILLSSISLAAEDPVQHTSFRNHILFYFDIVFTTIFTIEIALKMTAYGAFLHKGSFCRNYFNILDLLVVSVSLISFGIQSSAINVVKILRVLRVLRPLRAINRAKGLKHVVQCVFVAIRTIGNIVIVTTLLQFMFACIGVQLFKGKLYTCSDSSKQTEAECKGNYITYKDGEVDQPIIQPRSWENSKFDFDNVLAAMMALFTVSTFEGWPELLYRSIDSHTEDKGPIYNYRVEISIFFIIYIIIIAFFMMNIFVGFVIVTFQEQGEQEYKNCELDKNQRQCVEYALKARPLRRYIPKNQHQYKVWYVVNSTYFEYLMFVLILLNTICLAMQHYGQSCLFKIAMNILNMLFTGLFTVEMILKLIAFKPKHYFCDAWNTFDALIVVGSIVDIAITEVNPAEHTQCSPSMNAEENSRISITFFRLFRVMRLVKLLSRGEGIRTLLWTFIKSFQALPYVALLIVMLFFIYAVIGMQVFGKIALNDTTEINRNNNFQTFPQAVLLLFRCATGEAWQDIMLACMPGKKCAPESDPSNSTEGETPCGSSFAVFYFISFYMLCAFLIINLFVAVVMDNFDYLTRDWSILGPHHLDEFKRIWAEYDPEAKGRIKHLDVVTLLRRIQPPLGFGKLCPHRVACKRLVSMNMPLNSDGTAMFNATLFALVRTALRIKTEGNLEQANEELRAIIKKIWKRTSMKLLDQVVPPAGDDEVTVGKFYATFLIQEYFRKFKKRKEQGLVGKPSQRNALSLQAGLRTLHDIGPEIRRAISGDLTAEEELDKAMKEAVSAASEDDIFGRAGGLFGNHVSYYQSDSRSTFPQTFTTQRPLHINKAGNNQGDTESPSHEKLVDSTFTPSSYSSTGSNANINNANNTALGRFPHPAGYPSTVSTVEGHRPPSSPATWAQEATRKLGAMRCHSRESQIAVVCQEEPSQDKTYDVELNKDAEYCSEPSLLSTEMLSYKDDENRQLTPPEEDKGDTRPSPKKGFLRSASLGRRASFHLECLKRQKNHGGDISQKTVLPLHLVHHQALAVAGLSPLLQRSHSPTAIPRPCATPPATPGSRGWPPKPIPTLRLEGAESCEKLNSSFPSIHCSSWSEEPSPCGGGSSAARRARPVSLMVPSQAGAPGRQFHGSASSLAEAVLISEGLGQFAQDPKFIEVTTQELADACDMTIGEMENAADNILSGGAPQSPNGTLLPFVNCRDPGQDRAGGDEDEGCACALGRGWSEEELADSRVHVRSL

In the case of `COC(=O)C1=C(C)NC(C)=C(C(=O)OC(CN2CCC(C(=O)c3ccc(F)cc3)CC2)c2ccccc2)C1c1cccc([N+](=O)[O-])c1` (stereo not shown) [Beispiel 1, 2,6-Dimethyl-4-(3-nitrophenyl)-1,4-dihydropyridin-3-carbonsäuremethylester-5-carbonsäure-[2-[4-(p-fluorbenzoyl)-piperidin-1-yl]-1-phenyl]-äthylester], the IC50 [1] is reported as ~6 nM, the Blutdrucksenkung [2] is reported as “ca. -70 mm Hg” and the IC50 [3] is reported as ~0.2 nM. The IC50 [4] was ~4 nM.
